The record followed here is patent US8288390B2, “Benzofuran derivatives” (Takeda Pharmaceutical Company Limited, priority 2009, dated 2012).

The test system of one assay is rat mixed glial culture. The assay is described as follows: Activity of promoting neuronal neogenesis in rat mixed glial culture. The assay is classed as cell-based. Conditions: Rattus norvegicus, 72 h, compound 1 μM + rhIGF-1 100 ng/ml, 3 days culture; absorbance at 450 nm (class III beta-tubulin antibody); control rhIGF-1 only = 100%; read-out: Increase Ratio of the Absorbance (% control). As to the method: From a three-day old SD rat, hippocampus and cerebral cortex were removed. By using a kit of dispersion liquid for neuronal cells (MB-X9901, manufactured by SUMITOMO BAKELITE CO., LTD.), cell suspension was prepared and then seeded on a 96-well plate coated with collagen Type I (4860-010, manufactured by Asahi Techno Glass Co., Ltd.) to 10^5 cells/well. Under the condition of 37° C. and 5% CO2, the cells were cultured for four days in a growth medium (D-MEM/F12 with 10% FBS, comprising PS).
After culturing, the medium was exchanged with a medium for differentiation (D-MEM/F12, comprising PS), added with rhIGF-1 (R&D Systems, 291-G1-250, final concentration of 100 ng/ml) and the compound to 1 μM, followed by further culture for three days. Cultured cells were fixed with 4% paraformaldehyde-PBS (manufactured by MUTO PURE CHEMICALS CO., LTD.) and subjected to membrane penetration using 0.1% Triton X-100 PBS, followed by blocking with Block Ace solution (UK-B80, manufactured by Dainippon Sumitomo Pharma Co., Ltd.). As a primary antibody, Anti-neuron-specific class III beta-tubulin antibody (R&D Systems, MAB1195, clone Tuj-1) was used after 1000× dilution. As a secondary antibody, Anti-Mouse Ig, HRP-Linked F (ab′) 2 Fragment Sheep (Amersham Biosciences, NA9310) was used after 10000× dilution. For washing process, the plate washer (BIO-TEK INSTRUMENTS ELX405) was used. For a chromogenic reaction, the reaction was carried out for 10 minutes using TMB Microwell Peroxidase Substrate System (Kirkegaard & Perry Laboratories, 50-76-00), followed by terminating the reaction according to the addition of 1M phosphoric acid. By using the plate reader (Labsystems Multiskan BICHROMATIC), absorbance at 450 nm was measured.
The absorbance for the case in which no compound is added (i.e., control, rhIGF-1 only) was 100%, and the increase ratio of the absorbance for the compound addition (i.e., compound+rhIGF-1) compared to the control was obtained as % control. Activity of the each compound for promoting neuronal differentiation that is measured according to the above method is summarized in Table 9 and Table 10.
With `COc1ccc(N2CCN(c3cc4c(cc3-c3ccc(C)cc3)OC(C)(C)C4)CC2)cc1` [Example 2, 1-[2,2-Dimethyl-6-(4-methylphenyl)-2,3-dihydro-1-benzofuran-5-yl]-4-(4-methoxyphenyl)piperazine], the activity at 1 µM was 432%.
As to `COc1ccc(N2CCN(c3c(C)c(C)c4c(c3-c3ccc(N(C)C)cc3)CC(C)(C)O4)CC2)cc1` [Example 5, 4-{5-[4-(4-Methoxyphenyl)piperazin-1-yl]-2,2,6,7-tetramethyl-2,3-dihydro-1-benzofuran-4-yl}-N,N-dimethylaniline], the activity at 1 µM came to 488%.
Consider `COc1ccc(N2CCN(c3c(C)c(C)c4c(c3-c3ccoc3)CC(C)(C)O4)CC2)cc1` [Example 6, 1-(4-Furan-3-yl-2,2,6,7-tetramethyl-2,3-dihydro-1-benzofuran-5-yl)-4-(4-methoxyphenyl)piperazine], for which the activity at 1 µM is more than 500%.
Still for that read-out and setting: then `COc1ccc(N2CCN(c3c(C)c(C)c4c(c3C3CC3)CC(C)(C)O4)CC2)cc1` [Example 7, 1-(4-Cyclopropyl-2,2,6,7-tetramethyl-2,3-dihydro-1-benzofuran-5-yl)-4-(4-methoxyphenyl)piperazine], with 325%.
As to `C=Cc1c2c(c(C)c(C)c1N1CCN(c3ccc(OC)cc3)CC1)OC(C)(C)C2` [Example 8, 1-(4-Ethenyl-2,2,6,7-tetramethyl-2,3-dihydro-1-benzofuran-5-yl)-4-(4-methoxyphenyl)piperazine], the activity at 1 µM stood at 242%.
In the case of `CCc1c2c(c(C)c(C)c1N1CCN(c3ccc(OC)cc3)CC1)OC(C)(C)C2` [Example 9, 1-(4-Ethyl-2,2,6,7-tetramethyl-2,3-dihydro-1-benzofuran-5-yl)-4-(4-methoxyphenyl)piperazine], the activity at 1 µM was determined as 228%.
In the case of `COc1ccc(N2CCN(c3c(C)c(C)c4c(c3C(C)C)CC(C)(C)O4)CC2)cc1` [Example 11, 1-(4-Methoxyphenyl)-4-[2,2,6,7-tetramethyl-4-(1-methylethyl)-2,3-dihydro-1-benzofuran-5-yl]piperazine], the activity at 1 µM stood at 159%.
Consider `Cc1ccc(N2CCN(c3c(C)c(C)c4c(c3C)CC(C)(C)O4)CC2)cc1` [Example 12, 1-(4-Methylphenyl)-4-(2,2,4,6,7-pentamethyl-2,3-dihydro-1-benzofuran-5-yl)piperazine], for which the activity at 1 µM is 336%.
The same measure, in the same setting: then `COc1ccc(C2CN(c3c(C)c(C)c4c(c3C)CC(C)(C)O4)CCN2C)cc1` (stereo not shown) [Example 13, 2-(4-Methoxyphenyl)-1-methyl-4-(2,2,4,6,7-pentamethyl-2,3-dihydro-1-benzofuran-5-yl)piperazine], with 265%.
Regarding `COc1ccc(C2CN(c3c(C)c(C)c4c(c3C)CC(C)(C)O4)CCO2)cc1` (stereo not shown) [Example 15, 2-(4-Methoxyphenyl)-4-(2,2,4,6,7-pentamethyl-2,3-dihydro-1-benzofuran-5-yl)morpholine], the activity at 1 µM amounted to 332%.
As for `Cc1c(C)c(N2CCOC(Cc3ccccc3)C2)c(C)c2c1OC(C)(C)C2` (stereo not shown) [Example 16, 2-Benzyl-4-(2,2,4,6,7-pentamethyl-2,3-dihydro-1-benzofuran-5-yl)morpholine], the activity at 1 µM worked out at 344%.
With `COc1ccc(N2CCN(c3c(C)c(C)c4c(c3C)CC3(CCCC3)O4)CC2)cc1` [Example 19, 1-(4-Methoxyphenyl)-4-(4,6,7-trimethyl-3H-spiro[1-benzofuran-2,1′-cyclopentan]-5-yl)piperazine], the activity at 1 µM turned out to be 278%.
The same measure, in the same setting: then `COc1ccc(N2CCN(c3c(C)c(C)c4c(c3C)CC(C)(C)O4)CC2)cc1F` [Example 32, 1-(3-Fluoro-4-methoxyphenyl)-4-(2,2,4,6,7-pentamethyl-2,3-dihydro-1-benzofuran-5-yl)piperazine], with more than 500%.
Consider `Cc1cc(N2CCN(c3c(C)c(C)c4c(c3C)CC(C)(C)O4)CC2)ccc1F` [Example 35, 1-(4-Fluoro-3-methylphenyl)-4-(2,2,4,6,7-pentamethyl-2,3-dihydro-1-benzofuran-5-yl)piperazine], for which the activity at 1 µM was 182%.
Consider `COc1ccc(N2CCN(c3c(C)c(C)c4c(c3C)CC(C)(C)O4)CC2)cc1OC` [Example 37, 1-(3,4-Dimethoxyphenyl)-4-(2,2,4,6,7-pentamethyl-2,3-dihydro-1-benzofuran-5-yl)piperazine], for which the activity at 1 µM was more than 500%.
Still for that read-out and setting: then `COc1cc(N2CCN(c3c(C)c(C)c4c(c3C)CC(C)(C)O4)CC2)ccc1F` [Example 38, 1-(4-Fluoro-3-methoxyphenyl)-4-(2,2,4,6,7-pentamethyl-2,3-dihydro-1-benzofuran-5-yl)piperazine], with 294%.
Regarding `COc1ccc(N2CCN(c3c(C)c(C)c4c(c3C)CC(C)(C)O4)CC2)cn1` [Example 40, 1-(6-Methoxypyridin-3-yl)-4-(2,2,4,6,7-pentamethyl-2,3-dihydro-1-benzofuran-5-yl)piperazine], the activity at 1 µM worked out at 341%.
Turning to `Cc1c(C)c(N2CCN(c3ccc(F)cc3)CC2)c(C)c2c1OC(C)(C)C2` [Example 41, 1-(4-Fluorophenyl)-4-(2,2,4,6,7-pentamethyl-2,3-dihydro-1-benzofuran-5-yl)piperazine], the activity at 1 µM was more than 500%.
Take `COc1ccc(N2CCCN(c3c(C)c(C)c4c(c3C)CC(C)(C)O4)CC2)cc1` [Example 45, 1-(4-Methoxyphenyl)-4-(2,2,4,6,7-pentamethyl-2,3-dihydro-1-benzofuran-5-yl)-1,4-diazepane]: the activity at 1 µM was 205%.
Turning to `CCOc1c(C)c(N2CCN(c3ccc(OC)cc3)CC2)c(C)c2c1OC(C)(C)C2` [Example 46, 1-(7-Ethoxy-2,2,4,6-tetramethyl-2,3-dihydro-1-benzofuran-5-yl)-4-(4-methoxyphenyl)piperazine], the activity at 1 µM is 221%.
On to `COc1ccc(N2CCN(c3c(C)c4c(c(OC)c3C)OC(C)C4)CC2)cc1` (stereo not shown) [Example 48, 1-(4-Methoxyphenyl)-4-(7-methoxy-2,4,6-trimethyl-2,3-dihydro-1-benzofuran-5-yl)piperazine], for which the activity at 1 µM was more than 500%.
In the case of `COc1ccc(N2CCN(c3c(C)c4c(c(OC(C)C)c3C)OC(C)C4)CC2)cc1` (stereo not shown) [Example 55, 1-(4-Methoxyphenyl)-4-[2,4,6-trimethyl-7-(1-methylethoxy)-2,3-dihydro-1-benzofuran-5-yl]piperazine], the activity at 1 µM was more than 500%.
As to `CCOc1ccc(N2CCN(c3c(C)c4c(c(OC)c3C)OC(C)C4)CC2)cc1` (stereo not shown) [Example 56, 1-(4-Ethoxyphenyl)-4-(7-methoxy-2,4,6-trimethyl-2,3-dihydro-1-benzofuran-5-yl)piperazine], the activity at 1 µM was more than 500%.

Still in this assay, the particulars now being: compound 1 μM + rhIGF-1 100 ng/ml, 3 days culture; absorbance at 450 nm (class III beta-tubulin antibody); control rhIGF-1 only = 100%.
With `COc1ccc(N2CCN(c3c(C)c(C)c4c(c3C)CC(C)(CO)O4)CC2)cc1` (single isomer, unassigned; (+)) [Example 144, (+)-{5-[4-(4-methoxyphenyl)piperazin-1-yl]-2,4,6,7-tetramethyl-2,3-dihydro-1-benzofuran-2-yl}methanol], the “Increase Ratio of the Absorbance (% control)” value is more than 500 % control.
Still for that read-out and setting: for `COc1ccc(N2CCN(c3c(C)c(C)c4c(c3C)CC(C)(CO)O4)CC2)cc1` (single isomer, unassigned; (-)) [Example 143, (−)-{5-[4-(4-methoxyphenyl)piperazin-1-yl]-2,4,6,7-tetramethyl-2,3-dihydro-1-benzofuran-2-yl}methanol] the value was more than 500 % control.
